According to US11090307B2, “Treating male senescence” (National Institute of Biological Sciences, Beijing, priority 2017, dated 2021):

Assays:
[1] = test system: 13-month old male wild type mice; assay: Long-term feeding of 13-month old male wild type mice with RIPA-56 chow for two months; type: in vivo
Protocol: We subsequently chose the 300 mg/kg dose to continuously feed 13-month old male wild type mice for two months to study the long-term effects of blocking necroptosis on testes. […] Additionally, the testosterone level of RIPA-56-treated mice remained high, while that of control mice decreased. […] Finally, the fertility rates of the RIPA-56-treated mice were much higher than those of control mice with 19 out of 25 mice on the RIPA-56 diet were fertile while only 6 out of 23 mice on normal diet produced progeny.

[2] = test system: phospho-MLKL in the testes; assay: TSZ-induced necroptosis in testes of mice fed RIPA-56-containing chow; type: in vivo
Protocol: We therefore evaluated the effects of a newly-identified, highly-potent, and highly-specific RIP1 kinase inhibitor from our laboratory (henceforth ‘RIPA-56’)(Ren et al., 2017) by incorporating it into mouse food at 150 mg/kg and 300 mg/kg doses. We first tested the effect of RIPA-56 on necroptosis in testes by injecting TSZ into testes of 2-month old mice after feeding the mice with increasing concentrations of RIPA-56-containing chow for one week.

## CCC(C)(C)C(=O)N(O)Cc1ccccc1 [RIPA-56]
[1]; 300 mg/kg in food, two months
  empty seminiferous tubules: hardly any seminiferous vesicles were empty
  fertility rate (fertile mice): 19 out of 25
  gross male aging metrics (body weight, fat deposition, libido, fertility, muscle mass, prostate hyperplasia): more youthful gross male aging metrics
  mass of seminal vesicles: around 1,000 milligrams
  testosterone level: remained high
[1]; 300 mg/kg in food, two months, vs control chow diet
  body weight: weighed less than mice fed with control chow diet
[1]; necroptosis blocked pharmaceutically
  age-associated weight gain: much less age-associated wright gain
[2]; 300 mg/kg dose in chow, one week, TSZ into testes
  block of necroptosis in testes: completely block necroptosis
[2]; 2-month old mice, chow with increasing concentrations (150 mg/kg and 300 mg/kg) for one week, then TSZ into testes
  appearance of TSZ-induced phospho-MLKL in the testes: blocked the appearance of TSZ-induced phospho-MLKL in the testes in a dose-dependent manner
